Measurements published in patent US10004716B2, “Therapeutic/ preventive agent containing coumarin derivative as active ingredient” (NIPPON ZOKI PHARMACEUTICAL CO., LTD., priority 2014, dated 2018).

Key:
[1] = test system: IL-6 gene expression; assay: Suppression of IL-1α-induced gene expression of inflammation-related factors in bovine cartilage pieces (real time PCR): IL-6; type: cell-based; details: 20 μmol/L test substance 2 hours, then IL-1α 3 ng/mL 8 hours, n = 3
Experimental: (§1) Each 6 to 8 cartilage pieces (diameter: 4 mm) of bovine metacarpophalangeal joint were placed into each well of a 24-well plate and incubated for one night in 1 mL of a basal medium in a CO2 incubator which was set at 37° C. and 5% by volume of CO2. After that, they were incubated for 2 hours in a basal medium containing 20 μmol/L of a test substance and, after addition of human recombinant IL-1α (3 ng/mL) thereto, they were incubated for 8 hours more. After completion of the incubation, the culture medium was discarded, an RNA stabilizer was added to the cartilage pieces, the mixture was incubated at 4° C. for one night and the cartilage pieces were finely cut using scissors, placed into micro-tubes and stored with freezing until the extraction of RNA therefrom.
(§2) The cartilage pieces placed in the micro-tubes were pulverized using Tissue Lyser (QIAGEN) (at 25 Hz for 5 minutes; for two times), 1 mL of QIAzol Lysis Reagent (QIAGEN) was added thereto to suspend, 200 μL of chloroform was added thereto followed by mixing and the mixture was centrifuged (1500 rpm at 4° C.) to recover the supernatant liquid. Total RNA was extracted and purified using QIACube (QIAGEN) and RNeasy Micro Kit (QIAGEN). cDNA was prepared from the total RNA using Omniscript RT Kit (QIAGEN) and Oligo(dT)12-18 Primer (Invitrogen).
(§3) The cDNA synthesized from the total RNA extracted in the above (2) was used to measure the gene expression level of the inflammation-related factors [IL-1β, IL-6, COX-2 and iNOS (inducible nitric oxide synthase)] by a conventional real time PCR method using a fluorescent dye SYBR GREEN I (Roche Diagnostics) by a Light Cycler LC 480 (the same). A calibration curve was prepared by dilution of a PCR product quantified by a DNA quantitation kit (PicoGreen dsDNA Quantitiation Kit (Molecular Probes)) to an extent of 10^2˜10^7 copies/μL. From each of the resulting measured data, copy numbers per 10000 copies of glyceroaldehyde-3-phosphate dehydrogenase (GAPDH) which was an internal standard were calculated.

[2] = test system: COX-2 gene expression; assay: Suppression of IL-1α-induced gene expression of inflammation-related factors in bovine cartilage pieces (real time PCR): COX-2; type: cell-based; details: 20 μmol/L test substance 2 hours, then IL-1α 3 ng/mL 8 hours, n = 3
Experimental: as §1, §2, §3

[3] = test system: NF-κB; assay: Suppressive action to NF-κB activation (luciferase reporter, HEK293T cells, TNF-α); type: cell-based, human; details: HEK293T cells with NF-κB reporter; test substance 25 μml/mL 1 hour, then TNF-α 10 ng/mL 5 hours; stimulated TNF-α = 100
Experimental: A preparation solution containing pGL4.32 [luc2P/NF-κB-RE/Hygrol] (Promega) which is an NF-κB reporter vector, pGL4.74 [hRluc/TK] (Promega) which is a control vector and Lipofectamine LTX (Life Technologies) which is a gene transfer agent was added to human embryo kidney cells (HEK293T cells) sown onto a […] whereupon there were prepared the cells which transiently express a reporter protein.
After 24 hours from the gene transfer, transient expression cells were peeled off by treating with trypsin, sown on a poly-lysine coated white 96-well plate and incubated for one night. The test substance was added to as to make its final concentration 25 μml/mL and, after pre-incubating for 1 hour, TNF-α was added thereto so as to make its final concentration 10 ng/mL followed by incubating for 5 hours more. The cells were dissolved and the activities of a firefly luciferase and a renilla luciferase were measured. Rate of the luminescent intensity by addition of each drug to the luminescent intensity by stimulation with TNF-α were calculated.

[4] = test system: rats suffering from degenerative intervertebral disk induced by nicotine; assay: 50% reaction threshold value to mechanical stimulation (von Frey test) in rats with degenerative intervertebral disk induced by nicotine; type: in vivo; details: SD male rats, after 41 days from exposure to nicotine, 1 hour after administration; per os once daily; n = 8; normal control 15.0, diseased control 4.6
Experimental: (§4) After 16 days from the purchase, SD male rats were organized into normal control group and nicotine group in terms of body weight, 50% reaction threshold value (measuring method will be mentioned later) and duration of walking time and, after 17 days from the purchase, exposure to nicotine was started for a nicotine group. Nicotine was prepared into 344.8 mg/mL using a physiological saline solution, filled into an osmotic pressure pump and retained under the skin of waist of rats. After 21 days from the retaining, an osmotic pressure pump into which a freshly-prepared nicotine solution was filled was retained under the skin of rats of five groups except the normal control group. Nicotine was prepared into […] using a physiological saline solution, filled into an osmotic pressure pump and retained under the skin of waist of the SD male rats.
(§5) After 13 days from exposure to nicotine, measurement of 50% reaction threshold value, duration of walking time and body weight were measured and a group organization was done into 6 groups of normal control group, diseased control group, compound 57-administered group, compound 58-administered group, compound 60-administered group and compound 68-administered group.
(§6) A test substance was suspended using 0.5 w/v % CMC and, together with stirring, 10 mL/kg of the suspension was repeatedly administered per os once daily after 14 to 52 or 53 days from the initiation of exposure to nicotine using an oral sonde for rats. To the normal control group and the diseased control group, 0.5 w/v % CMC was repeatedly administered per os in the same administration schedule and administration method.
A 50% reaction threshold value to mechanical stimulation was measured before the exposure to nicotine and after 41 days from the exposure to nicotine. The six groups of the rats mentioned in the above (2) were placed in a transparent acrylic gauge where the bottom is a metal wire, acclimated for about 3 minutes and a 50% reaction threshold value to mechanical stimulation was measured after 1 hour from the administration of a testing drug.
The measurement was conducted using a von Frey filament (manufactured by North Coast Medical Inc.) in accordance with a method of Chaplan, et al. (Journal of Neuroscience Methods, vol. 53, no. 1, pages 55 to 63, 1994) and a method of Dixon, et al. ([…] of Pharmacology and Toxicology, vol. 20, pages 441 to 462, 1980). […] A 50% reaction threshold value to mechanical stimulation was measured using the reaction for the stimulation for six times in total and a mean value in each of the groups was calculated. […]

[5] = test system: rats suffering from degenerative intervertebral disk induced by nicotine; assay: Duration of walking time (rotor rod) in rats with degenerative intervertebral disk induced by nicotine; type: in vivo; details: SD male rats, after 48 days from initiation of exposure to nicotine, 300 seconds maximum, per os once daily, n = 8, normal control 274.1, diseased control 147.7
Experimental: as §4, §5, §6
Before the exposure to nicotine and after 48 days from the initiation of the exposure to nicotine, duration of waling time of rats was measured using a rotor rod for both rats and mice. A rotating speed was adjusted in such a manner that, when rotation was started in constant acceleration from the state where a rotor stopped, it reached 15 rotations per minute after 300 seconds. A rat was placed on a rotor which was in a stopped state, then the rotor was rotated, the time until the rat dropped was measured (300 seconds in maximum) and a mean value of three runs was determined.

Row | Structure (SMILES) | Copy Numbers per 10000 Copies of GAPDH IL-6 [1] | Copy Numbers per 10000 Copies of GAPDH COX-2 [2] | Luminescent Intensity to Stimulated TNF-α (%) [3] [%] | Threshold Value for Pain [4] [g] | Duration of Walking Time [5] [s]
1 | O=c1oc2c(OS(=O)(=O)c3ccc(C(F)(F)F)cc3)cccc2cc1NS(=O)(=O)c1cccc(C(F)(F)F)c1 [Compound 57, 2-Oxo-3-[[3-(trifluoromethyl)phenyl]sulfonylamino]-chromen-8-yl 4-(trifluoromethyl)benzenesulfonate] | 7749.8 copies per 10000 copies of GAP | 1420.8 copies per 10000 copies of GAP | 7.5 | 7.5 | 187.3
2 | O=c1oc2c(OS(=O)(=O)c3cccc(Br)c3)cccc2cc1NS(=O)(=O)c1cccc(C(F)(F)F)c1 [Compound 60, 2-Oxo-3-[[3-(trifluoromethyl)phenyl]sulfonylamino]-chromen-8-yl 3-bromobenzenesulfonate] | 9277.4 copies per 10000 copies of GAP | 920.6 copies per 10000 copies of GAP | 15.7 | 9.6 | 208.4
3 | O=c1oc2c(OS(=O)(=O)c3ccc(C(F)(F)F)cc3)cccc2cc1NS(=O)(=O)c1cccc(Br)c1 [Compound 58, 3-[(3-Bromophenyl)sulfonylamino]-2-oxochromen-8-yl 4-(trifluoromethyl)benzenesulfonate] | 9346.3 copies per 10000 copies of GAP | 982.3 copies per 10000 copies of GAP | 14.5 | 6.7 | 210.9
4 | O=c1oc2c(OS(=O)(=O)c3cccc(C(F)(F)F)c3)cccc2cc1NS(=O)(=O)c1ccc(C(F)(F)F)cc1 [Compound 68, 2-Oxo-3-[[4-(trifluoromethyl)phenyl]sulfonylamino]-chromen-8-yl 3-(trifluoromethyl)benzenesulfonate] | 16195.2 copies per 10000 copies of GAP | 1655.9 copies per 10000 copies of GAP | 16.1 | 7.6 | 189.2
